Source: patent US20090076130A1, “COMPOUNDS FOR THE INHIBITION OF HISTONE DEACETYLASE” (NATUREWISE BIOTECH & MEDICALS CORPORATION, priority 2007, published 2009)

Key:
SMN2 protein = details: fibroblast cells derived from SMA patients, 64 hours of treatment; cited from earlier work
acetylated histone H4 = assay: Western blotting of hyperacetylated histone H4 in C6 glioma cells; format: cell-based, rat
Method: Accumulation of hyperacetylated histone H4 was analyzed in the cell lysates by using Western Blotting and the antibody directed against acetylated histone H4 (Upstate). The C6 glioma cells were seeded at a density of 1×10^6 per 10 cm culture dish. After 24 hours, the cells were treated with 10 μg/mL of NBM-HD-1 or 4 mM sodium butyrate for several hours. The whole-cell lysates were prepared by using denaturing SDS sample buffer and then separated on 15% SDS-polyacrylamide gels. […] The amount of acetylated histones was hardly detectable in untreated C6 glioma cells. The amount of acetylated histone H4 of the cells treated with 4 mM sodium butyrate for 2 hours increased. Sodium butyrate was then removed from the culture medium. After 6 hours, the amount of acetylated histone H4 decreased. The accumulation of acetylated histone H4 increased in the cells treated with NBM-HD-1 for 2 hours. […] The highest histone acetylation appeared at 6 hours after the compound had been removed. […] Because NBM-HD-1 is more hydrophobic than sodium butyrate, NBM-HD-1 can be retained in the cells longer than sodium butyrate and continuously induce the acetylation of histone H4.

[1] = system: human giloblastoma DBTRG-05MG cancer cells; assay: Growth and morphology of human giloblastoma DBTRG-05MG cancer cells; format: cell-based; details: NBM-HD-1 2.5, 5, 10 μg/mL or 4 mM sodium butyrate, 72 hours
Method: The human giloblastoma DBTRG-05MG cancer cells were cultured in RPMI medium 1640 (Gibco) supplemented with penicillin G, streptomycin sulphate, 0.5 mM of L-glutamine and 10% fetal bovine serum (FBS; Gibco), 100 mh/L sodium pyruvate (Gibco), and 1% NEAA (Gibco) at 37° C., 5% CO2 and 95% relative humidity. For these experiments, the cells were seeded at a density of 3×10^5 per well of 6-well plates. After 24 hours, the cells were treated with different concentrations of NBM-HD-1 and 4 mM sodium butyrate. The cells were observed and counted after 72 hours. […] In 05MG cells (FIG. 7(A)), after incubation with 2.5 μg/mL (FIG. 7(A)-b), 5 μg/mL (FIG. 7(A)-c) and 10 μg/mL (FIG. 7(A)-d) of NBM-HD-1 for 72 hours, the density of the cells reduced dramatically in comparison with that of the control group (FIG. 7(A)-a). The 05MG cells in the experimental group also changed to become longer than those in the control group.

[2] = system: human breast MCF-7 cancer cells; assay: Growth and morphology of breast cancer MCF-7 cells; format: cell-based
Method: The breast cancer MCF-7 cells, were cultured in Dulbecco's modified Eagle's medium (DMEM; Gibco) supplemented with penicillin G, streptomycin sulphate, 0.5 mM of L-glutamine and 10% fetal bovine serum (FBS; Gibco) at 37° C., 5% CO2 and 95% relative humidity. The cells were seeded at a density of 3×10^5 per well of 6-well plates. After 24 hours, the cells were treated with different concentrations of compound NBM-HD-1 and 4 mM sodium butyrate being used as the positive control. The cells were observed after 48 hours and counted after 96 hours. […] In FIG. 8(A), after the cells were incubated with 2.5 μg/mL (FIG. 8(A)-b), 5 μg/mL (FIG. 8(A)-c) and 10 μg/mL (FIG. 8(A)-d) of NBM-HD-1 for 48 hours, the density of MCF-7 cells reduced dramatically in comparison with that of the control group (FIG. 8(A)-a). The morphology of the MCF-7 cells in the experimental group changed in comparison with that in the control group. […] The results of the cell counting (FIG. 8(B)) indicate that, similar to sodium butyrate, NBM-HD-1 inhibits cell growth.
MCF-7 cancer cells were seeded at a density of 3×10^5 per well in 6-well plates. After 24 hours, the cells were treated with different concentrations of compound NBM-HD-2 and 4 mM sodium butyrate being used as the positive control. The cells were observed and counted after 72 hours. […] In FIG. 13(A), after the cells were incubated with 2.5 μg/mL (FIG. 13(A)-c), 5 μg/mL (FIG. 13(A)-d), 7.5 μg/mL (FIG. 13(A)-e) and 10 μg/mL (FIG. 13(A)-f) of NBM-HD-2 for 72 hours, the density of MCF-7 cells reduced dramatically in comparison with that of the control group (FIG. 13(A)-a). The morphology of the MCF-7 cells in the experimental group changed in comparison with that in the control group.
MCF-7 cancer cells were seeded at a density of 3×10^5 per well of 6-well plates. After 24 hours, the cells were treated with different concentrations of compound NBM-HD-3 and 4 mM sodium butyrate, which was being used as the positive control. The cells were observed and counted after 72 hours. […] In FIG. 14(A), after the cells were incubated with 2.5 μg/mL (FIG. 14(A)-c), 5 μg/mL (FIG. 14(A)-d), 7.5 μg/mL (FIG. 14(A)-e) and 10 μg/mL (FIG. 14(A)-f) of NBM-HD-3 for 72 hours, the density of MCF-7 cells reduced dramatically in comparison with that of the control group (FIG. 14(A)-a). The morphology of the MCF-7 cells in the experimental group changed in comparison with that in the control group. […] The results of the cell counting (FIG. 14(B)) indicate that, similar to sodium butyrate, NBM-HD-3 inhibits cell growth.

[3] = system: transgenic mouse model of spinal and bulbar muscular atrophy; details: cited from earlier work
cyclin D1 = details: MCF-7 breast cancer cells; cited from earlier work
[4] = compound 2.5, 5, 7.5, 10 μg/mL or 4 mM sodium butyrate, 72 hours

Q: For `CN(C)c1ccc(C(=O)NCCCCCCC(=O)NO)cc1` [M344], which “up-regulation of SMN2 protein expression” value (SMN2 protein) is on record?
A: Its value is “up to 7 fold”.

Q: For `CCCC(=O)[O-].[Na+]` [sodium butyrate, reference compound], which “accumulation of hyperacetylated histone H4” value (acetylated histone H4; 10 μg/mL NBM-HD-1 or 4 mM sodium butyrate, 2 hours) is on record?
A: The value was “can increase the accumulation of hyperacetylated histone H4”.

Q: What about the “amount of acetylated histone H4 after removal of the compound” value (acetylated histone H4; after 2 hours treatment and removal from the culture medium, up to 6 hours) of the same compound?
A: Its value is “decreased”.

Q: What about the “growth of 05MG cancer cells” value [1] of the same compound?
A: Its value is “could inhibit the proliferation of 05MG cancer cells”.

Q: And the “growth of MCF-7 cancer cells” value ([2]; NBM-HD-1 2.5, 5, 10 μg/mL or 4 mM sodium butyrate, observed after 48 hours, counted after 96 hours)?
A: Its value is “able to inhibit the growth of MCF-7 cells”.

Q: What about the “growth of MCF-7 cancer cells” value [2, 4] of the same compound?
A: Its value is “able to inhibit the growth of MCF-7 cells”.

Q: And the phenotypic expression [3]?
A: Its phenotypic expression is “ameliorates phenotypic expression”.

Q: For `COc1cc2c(c(O)c1CCC(C)(C)O)C(=O)C[C@@H](c1ccc(OC)c(OC)c1C/C=C(\C)CCCC(C)(C)O)O2` [NBM-HD-3], which “morphology of MCF-7 cancer cells” value ([2]; 2.5, 5, 7.5, 10 μg/mL, 72 hours) is on record?
A: Its value is “change their morphology”.

Q: What about the “growth of MCF-7 cancer cells” value [2, 4] of the same compound?
A: Its value is “can inhibit the growth of MCF-7 cancer cells in a dose-dependent manner”.

Q: For `CC(/C=C/C(=O)NO)=C\[C@@H](C)C(=O)c1ccc(N(C)C)cc1` [Trichostatin A], which “cyclin D1 degradation” value (cyclin D1) is on record?
A: The value was “induce ubiquitin-dependent cyclin D1 degradation”.
